Experimental data as given in patent US10670605B2, “Cysteine reactive probes and uses thereof” (The Scripps Research Institute, priority 2015, dated 2020).

Key:
Assay in all cases: Competitive isoTOP-ABPP, cell lysates
Type in all cases: binding
UBE2S C118 (Q16763) = target: T1, UBE2S C118 (Q16763) (Homo sapiens, UniProt Q16763); conditions: for isoTOP-ABPP reactivity ratio, Q16763_C118: 500 μm
T1 sequence (Q16763 1-222): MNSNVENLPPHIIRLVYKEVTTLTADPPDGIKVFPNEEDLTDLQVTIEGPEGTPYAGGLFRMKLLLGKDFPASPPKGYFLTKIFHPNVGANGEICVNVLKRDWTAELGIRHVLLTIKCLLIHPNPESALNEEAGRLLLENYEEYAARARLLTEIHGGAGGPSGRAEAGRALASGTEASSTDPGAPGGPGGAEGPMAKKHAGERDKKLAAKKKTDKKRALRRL

USP22 C171 (Q9UPT9) = target: T2, USP22 C171 (Q9UPT9) (Homo sapiens, UniProt Q9UPT9)
T2 sequence (Q9UPT9 1-525): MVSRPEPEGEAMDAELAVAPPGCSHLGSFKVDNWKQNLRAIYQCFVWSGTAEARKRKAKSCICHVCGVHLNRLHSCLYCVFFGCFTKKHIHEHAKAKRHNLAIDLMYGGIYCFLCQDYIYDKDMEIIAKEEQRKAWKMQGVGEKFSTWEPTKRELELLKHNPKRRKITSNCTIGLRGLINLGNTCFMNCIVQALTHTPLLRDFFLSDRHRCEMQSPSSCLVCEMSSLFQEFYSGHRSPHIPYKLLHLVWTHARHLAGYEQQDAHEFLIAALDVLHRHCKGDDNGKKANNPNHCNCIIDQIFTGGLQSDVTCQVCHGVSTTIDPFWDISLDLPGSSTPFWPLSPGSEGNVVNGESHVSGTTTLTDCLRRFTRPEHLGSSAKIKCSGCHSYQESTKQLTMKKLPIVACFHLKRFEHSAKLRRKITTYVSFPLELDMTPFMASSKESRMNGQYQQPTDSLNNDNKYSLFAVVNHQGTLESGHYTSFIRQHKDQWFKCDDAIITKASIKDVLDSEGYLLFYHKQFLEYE

ACAT1 C196 (P24752) = target: T3, ACAT1 C196 (P24752) (Homo sapiens, UniProt P24752); conditions: for isoTOP-ABPP reactivity ratio, P24752_C196: 500 μm; for isoTOP-ABPP ratio, P24752_C196 / R value (DMSO/fragment): 500 μM
T3 sequence (P24752 34-427): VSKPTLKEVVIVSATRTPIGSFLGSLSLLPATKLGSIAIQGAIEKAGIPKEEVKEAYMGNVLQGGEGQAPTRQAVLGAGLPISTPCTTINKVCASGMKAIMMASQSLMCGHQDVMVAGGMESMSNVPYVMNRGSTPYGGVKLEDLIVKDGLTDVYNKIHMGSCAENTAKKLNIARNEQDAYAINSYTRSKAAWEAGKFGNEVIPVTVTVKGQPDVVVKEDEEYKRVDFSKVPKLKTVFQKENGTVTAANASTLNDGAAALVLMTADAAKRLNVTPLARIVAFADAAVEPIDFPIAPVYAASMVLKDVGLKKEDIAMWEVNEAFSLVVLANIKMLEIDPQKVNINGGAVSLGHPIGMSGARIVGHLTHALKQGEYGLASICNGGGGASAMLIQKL

ACAT1 C126 (P24752) = target: T4, ACAT1 C126 (P24752) (Homo sapiens, UniProt P24752); conditions: for isoTOP-ABPP reactivity ratio, P24752_C126: 500 μm; for isoTOP-ABPP ratio, P24752_C126: invitro
T4 sequence (P24752 34-427): T3 sequence (P24752 34-427)

ACAT1 C413 (P24752) = target: T5, ACAT1 C413 (P24752) (Homo sapiens, UniProt P24752); conditions: for isoTOP-ABPP reactivity ratio, P24752_C413: 500 μm
T5 sequence (P24752 34-427): T3 sequence (P24752 34-427)

ACAT1 C119 (P24752) = target: T6, ACAT1 C119 (P24752) (Homo sapiens, UniProt P24752); conditions: for isoTOP-ABPP reactivity ratio, P24752_C119: 500 μm; for isoTOP-ABPP ratio P24752_C119 / R value (DMSO/fragment): 500 μM
T6 sequence (P24752 34-427): T3 sequence (P24752 34-427)

CC(C)(C)c1cc(NC(=O)CCl)on1 [compound 32]
isoTOP-ABPP reactivity ratio, Q16763_C118 (UBE2S C118 (Q16763); in-vitro_ramos): 1.1
isoTOP-ABPP reactivity ratio, Q16763_C118 (UBE2S C118 (Q16763); in-vitro_ramos_231): 1.1
isoTOP-ABPP reactivity ratio, Q9UPT9_C171 (USP22 C171 (Q9UPT9); 500 μm, in-vitro_ramos): 9.3
isoTOP-ABPP reactivity ratio, P24752_C196 (ACAT1 C196 (P24752); in-vitro_ramos): 2.0
isoTOP-ABPP reactivity ratio, P24752_C196 (ACAT1 C196 (P24752); in-vitro_ramos_231): 2.3
isoTOP-ABPP reactivity ratio, P24752_C126 (ACAT1 C126 (P24752); in-vitro_ramos): 8.6
isoTOP-ABPP reactivity ratio, P24752_C126 (ACAT1 C126 (P24752); in-vitro_ramos_231): 7.3
isoTOP-ABPP reactivity ratio, P24752_C413 (ACAT1 C413 (P24752); in-vitro_ramos): 4.1
isoTOP-ABPP reactivity ratio, P24752_C413 (ACAT1 C413 (P24752); in-vitro_ramos_231): 6.8
isoTOP-ABPP reactivity ratio, P24752_C119 (ACAT1 C119 (P24752); in-vitro_ramos): 1.3
isoTOP-ABPP reactivity ratio, P24752_C119 (ACAT1 C119 (P24752); in-vitro_ramos_231): 1.7

C=CC(=O)N(c1ccccc1)c1ccc(Br)cc1 [compound 5]
isoTOP-ABPP ratio, Q16763_C118 (UBE2S C118 (Q16763); 500 μM, invitro, 231): 2.8
isoTOP-ABPP ratio, Q9UPT9_C171 (USP22 C171 (Q9UPT9); 500 μM, invitro, ramos): 20.0
isoTOP-ABPP ratio, P24752_C196 (ACAT1 C196 (P24752); invitro, 231): 1.5
isoTOP-ABPP ratio, P24752_C196 (ACAT1 C196 (P24752); invitro, ramos): 2.2
isoTOP-ABPP ratio, P24752_C126 (ACAT1 C126 (P24752); 500 μM, 231): 0.9
isoTOP-ABPP ratio, P24752_C126 (ACAT1 C126 (P24752); 500 μM, ramos): 1.3
isoTOP-ABPP ratio P24752_C413 (ACAT1 C413 (P24752); 500 μM, invitro, 231): 1.3
isoTOP-ABPP ratio P24752_C119 (ACAT1 C119 (P24752); invitro, 231): 1.8
isoTOP-ABPP ratio P24752_C119 (ACAT1 C119 (P24752); invitro, ramos): 2.4

COc1ccc2c(c1)CCCN2C(=O)CCl [compound 2]
R value (DMSO/fragment) (UBE2S C118 (Q16763); 500 μM, in vitro, MDA-MB-231): 4.2
R value (DMSO/fragment) (UBE2S C118 (Q16763); 500 μM, invitro, ramos): 6.9
R value (DMSO/fragment) (USP22 C171 (Q9UPT9); 500 μM, invitro, ramos): 7.1
R value (DMSO/fragment) (ACAT1 C196 (P24752); in vitro, MDA-MB-231): 12.4
R value (DMSO/fragment) (ACAT1 C196 (P24752); invitro, ramos): 9.3
R value (DMSO/fragment) (ACAT1 C126 (P24752); 500 μM, in vitro, MDA-MB-231): 20.0
R value (DMSO/fragment) (ACAT1 C413 (P24752); 500 μM, in vitro, MDA-MB-231): 18.1
R value (DMSO/fragment) (ACAT1 C119 (P24752); in vitro, MDA-MB-231): 3.9
R value (DMSO/fragment) (ACAT1 C119 (P24752); invitro, ramos): 3.2

N#C/C(=C\c1cc(C(F)(F)F)cc(C(F)(F)F)c1)C(N)=O [compound 23]
isoTOP-ABPP ratio (reactivity profile), Q16763_C118 (UBE2S C118 (Q16763); 500 μm in-vitro ramos): 2.4
isoTOP-ABPP ratio (reactivity profile), Q16763_C118 (UBE2S C118 (Q16763); 500 μm in-vitro ramos_231): 1.6
isoTOP-ABPP ratio (reactivity profile), Q9UPT9_C171 (USP22 C171 (Q9UPT9); 500 μm in-vitro ramos_231): 5.1
isoTOP-ABPP ratio (reactivity profile), P24752_C196 (ACAT1 C196 (P24752); 500 μm in-vitro ramos): 1.8
isoTOP-ABPP ratio (reactivity profile), P24752_C126 (ACAT1 C126 (P24752); 500 μm in-vitro ramos): 0.8
isoTOP-ABPP ratio (reactivity profile), P24752_C126 (ACAT1 C126 (P24752); 500 μm in-vitro ramos_231): 0.8
isoTOP-ABPP ratio (reactivity profile), P24752_C413 (ACAT1 C413 (P24752); 500 μm in-vitro ramos): 1.2
isoTOP-ABPP ratio (reactivity profile), P24752_C413 (ACAT1 C413 (P24752); 500 μm in-vitro ramos_231): 1.1
isoTOP-ABPP ratio (reactivity profile), P24752_C119 (ACAT1 C119 (P24752); 500 μm in-vitro ramos): 2.0
isoTOP-ABPP ratio (reactivity profile), P24752_C119 (ACAT1 C119 (P24752); 500 μm in-vitro ramos_231): 1.7
